Laboratory results: publication PMC6979384, “Characterization of the plant homeodomain (PHD) reader family for their histone tail interactions” (Epigenetics & Chromatin, 2020)

Legend:
Test in all cases: Histone peptide microarray
Format in all cases: binding, human
AIRE (PP) = conditions: AIRE (PP); sheet "Array Heatmap"; each array performed twice, total n = 4
In short: (§1)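 A peptide microarray holding 293 synthetic histone peptides with individual or combinatorial modifications was probed with each GST-PHD protein at 0.5 μM. Values represent mean intensity (±SD) from four replicates.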

BAZ2B = conditions: BAZ2B; sheet "Array Heatmap"; each array performed twice, total n = 4
In short: as §1

BPTF (PB) = conditions: BPTF (PB); sheet "Array Heatmap"; each array performed twice, total n = 4
In short: as §1

CHD4 (PPCC) = conditions: CHD4 (PPCC); sheet "Array Heatmap"; each array performed twice, total n = 4
In short: as §1

CHD5 (PCC) = conditions: CHD5 (PCC); sheet "Array Heatmap"; each array performed twice, total n = 4
In short: as §1

CHD5 (PPCC) = conditions: CHD5 (PPCC); sheet "Array Heatmap"; each array performed twice, total n = 4
In short: as §1

DIDO1 = conditions: DIDO1; sheet "Array Heatmap"; each array performed twice, total n = 4
In short: as §1

DPF2 (PPC2W2) = conditions: DPF2 (PPC2W2); sheet "Array Heatmap"; each array performed twice, total n = 4
In short: as §1

ING1 = conditions: ING1; sheet "Array Heatmap"; each array performed twice, total n = 4
In short: as §1

ING2 = conditions: ING2; sheet "Array Heatmap"; each array performed twice, total n = 4
In short: as §1

ING3 = conditions: ING3; sheet "Array Heatmap"; each array performed twice, total n = 4
In short: as §1

ING4 = conditions: ING4; sheet "Array Heatmap"; each array performed twice, total n = 4
In short: as §1

ING5 = conditions: ING5; sheet "Array Heatmap"; each array performed twice, total n = 4
In short: as §1

KDM4C (TTP) = conditions: KDM4C (TTP); sheet "Array Heatmap"; each array performed twice, total n = 4
In short: as §1

KDM5A (1) = conditions: KDM5A (1); sheet "Array Heatmap"; each array performed twice, total n = 4
In short: as §1

KDM5A (3) = conditions: KDM5A (3); sheet "Array Heatmap"; each array performed twice, total n = 4
In short: as §1

KDM5B (1) = conditions: KDM5B (1); sheet "Array Heatmap"; each array performed twice, total n = 4
In short: as §1

KDM5B (3) = conditions: KDM5B (3); sheet "Array Heatmap"; each array performed twice, total n = 4
In short: as §1

KDM7A = conditions: KDM7A; sheet "Array Heatmap"; each array performed twice, total n = 4
In short: as §1

MLL5 = conditions: MLL5; sheet "Array Heatmap"; each array performed twice, total n = 4
In short: as §1

MORC3 (CW) = conditions: MORC3 (CW); sheet "Array Heatmap"; each array performed twice, total n = 4
In short: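 Each reader, produced as a GST fusion and purified, was tested at 0.5 μM on synthetic histone peptides (293 in total) carrying single or combinatorial marks. Intensities averaged over four replicates.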

PHF13 = conditions: PHF13; sheet "Array Heatmap"; each array performed twice, total n = 4
In short: as §1

PHF21A = conditions: PHF21A; sheet "Array Heatmap"; each array performed twice, total n = 4
In short: as §1

PHF23 = conditions: PHF23; sheet "Array Heatmap"; each array performed twice, total n = 4
In short: as §1

PHF2 = conditions: PHF2; sheet "Array Heatmap"; each array performed twice, total n = 4
In short: as §1

PHF8 = conditions: PHF8; sheet "Array Heatmap"; each array performed twice, total n = 4
In short: as §1

PHRF1 (RP) = conditions: PHRF1 (RP); sheet "Array Heatmap"; each array performed twice, total n = 4
In short: as §1

RAG2 = conditions: RAG2; sheet "Array Heatmap"; each array performed twice, total n = 4
In short: as §1

SP140L = conditions: SP140L; sheet "Array Heatmap"; each array performed twice, total n = 4
In short: as §1

TAF3 = conditions: TAF3; sheet "Array Heatmap"; each array performed twice, total n = 4
In short: as §1

TRIM66 (PB) = conditions: TRIM66 (PB); sheet "Array Heatmap"; each array performed twice, total n = 4
In short: as §1

Substance	Array Heatmap value (peptide array signal) (AIRE (PP))	Array Heatmap value (peptide array signal) (BAZ2B)	Array Heatmap value (peptide array signal) (BPTF (PB))	Array Heatmap value (peptide array signal) (CHD4 (PPCC))	Array Heatmap value (peptide array signal) (CHD5 (PCC))	Array Heatmap value (peptide array signal) (CHD5 (PPCC))	Array Heatmap value (peptide array signal) (DIDO1)	Array Heatmap value (peptide array signal) (DPF2 (PPC2W2))	Array Heatmap value (peptide array signal) (ING1)	Array Heatmap value (peptide array signal) (ING2)	Array Heatmap value (peptide array signal) (ING3)	Array Heatmap value (peptide array signal) (ING4)	Array Heatmap value (peptide array signal) (ING5)	Array Heatmap value (peptide array signal) (KDM4C (TTP))	Array Heatmap value (peptide array signal) (KDM5A (1))	Array Heatmap value (peptide array signal) (KDM5A (3))	Array Heatmap value (peptide array signal) (KDM5B (1))	Array Heatmap value (peptide array signal) (KDM5B (3))	Array Heatmap value (peptide array signal) (KDM7A)	Array Heatmap value (peptide array signal) (MLL5)	also measured
H2BK5me3: H2B 1-24 [Peptide H2BK5me3]	0.3902	0.449	0.341	0.5374	0.766	0.5383	0.7661	0.6454	0.5322	0.6172	0.4743	0.4354	0.3443	0.446	0.4446	0.4811	0.6322	0.4604	0.3153	0.5755	Array Heatmap value (peptide array signal) (MORC3 (CW)): 0.3836; Array Heatmap value (peptide array signal) (PHF13): 0.5645; Array Heatmap value (peptide array signal) (PHF21A): 0.4302; Array Heatmap value (peptide array signal) (PHF23): 0.5495; Array Heatmap value (peptide array signal) (PHF2): 0.5404; Array Heatmap value (peptide array signal) (PHF8): 0.3604; Array Heatmap value (peptide array signal) (PHRF1 (RP)): 0.4726; Array Heatmap value (peptide array signal) (RAG2): 0.2767; Array Heatmap value (peptide array signal) (SP140L): 0.332; Array Heatmap value (peptide array signal) (TAF3): 0.2673; Array Heatmap value (peptide array signal) (TRIM66 (PB)): 0.6056
H2BK12ac: H2B 1-24 [Peptide H2BK12ac]	0.3561	0.3626	0.2975	0.55	0.7553	0.4364	0.6693	0.6335	0.4874	0.5927	0.413	0.3767	0.2703	0.3788	0.3805	0.4192	0.5631	0.4029	0.2936	0.5021	Array Heatmap value (peptide array signal) (MORC3 (CW)): 0.3313; Array Heatmap value (peptide array signal) (PHF13): 0.5184; Array Heatmap value (peptide array signal) (PHF21A): 0.4277; Array Heatmap value (peptide array signal) (PHF23): 0.4647; Array Heatmap value (peptide array signal) (PHF2): 0.5083; Array Heatmap value (peptide array signal) (PHF8): 0.311; Array Heatmap value (peptide array signal) (PHRF1 (RP)): 0.4148; Array Heatmap value (peptide array signal) (RAG2): 0.2122; Array Heatmap value (peptide array signal) (SP140L): 0.3291; Array Heatmap value (peptide array signal) (TAF3): 0.2326; Array Heatmap value (peptide array signal) (TRIM66 (PB)): 0.5657
H2BK15ac: H2B 1-24 [Peptide H2BK15ac]	0.4221	0.4604	0.3575	0.606	0.7574	0.5537	0.6647	0.6359	0.5436	0.6208	0.4826	0.465	0.3652	0.4832	0.465	0.4161	0.6467	0.457	0.3558	0.5596	Array Heatmap value (peptide array signal) (MORC3 (CW)): 0.3521; Array Heatmap value (peptide array signal) (PHF13): 0.6426; Array Heatmap value (peptide array signal) (PHF21A): 0.4803; Array Heatmap value (peptide array signal) (PHF23): 0.5678; Array Heatmap value (peptide array signal) (PHF2): 0.5204; Array Heatmap value (peptide array signal) (PHF8): 0.3468; Array Heatmap value (peptide array signal) (PHRF1 (RP)): 0.4303; Array Heatmap value (peptide array signal) (RAG2): 0.2507; Array Heatmap value (peptide array signal) (SP140L): 0.361; Array Heatmap value (peptide array signal) (TAF3): 0.2676; Array Heatmap value (peptide array signal) (TRIM66 (PB)): 0.5831
